Assay results taken from ChEMBL document CHEMBL3044995, “Synthesis of allylic trifluoromethyl ketones and their activity as inhibitors of the sex pheromone of the leopard moth, Zeuzera pyrina L. (Lepidoptera: Cossidae)” (Pest Manag Sci, 2011).
Converted amounts (≈) assume the structure as drawn. The source made the active and inactive calls. No cut-off for these calls is given here.

Columns and labels:
[1] = Toxicity in Swiss Mus musculus (mouse) measured after 6 days; assay type: organism-based; conditions: in vivo
[2] = system: Daphnia; assay: Toxicity in Daphnia assessed as survial; assay type: organism-based
[3] = system: Zeuzera pyrina; assay: Effect on response of Zeuzera pyrina males to the calling female assessed as flight towords source up to 10 ug by Wind tunnel assay; assay type: functional
[4] = system: Zeuzera pyrina; assay: Inhibition of electroantennogram response of Zeuzera pyrina males to sex pheromone at 1 ug/antenna topical application by electrophysiology; assay type: functional
[5] = system: Zeuzera pyrina; assay: Effect on response of Zeuzera pyrina males to the calling female assessed as male took off up to 10 ug by Wind tunnel assay; assay type: functional
[6] = system: Zeuzera pyrina; assay: Inhibition of electroantennogram response of Zeuzera pyrina males to sex pheromone at 0.1 ug/antenna topical application by electrophysiology; assay type: functional, organism-based
[7] = system: Zeuzera pyrina; assay: Effect on response of Zeuzera pyrina males to the calling female assessed as complete upwind fligts up to 10 ug by Wind tunnel assay; assay type: functional
[8] = system: Zeuzera pyrina; assay: Effect on response of Zeuzera pyrina males to the calling female assessed as contact to female up to 10 ug by Wind tunnel assay; assay type: functional
[9] = system: Zeuzera pyrina; assay: Inhibition of electroantennogram response of Zeuzera pyrina males to sex pheromone at 0.5 ug/antenna topical application by electrophysiology; assay type: functional, organism-based
[10] = system: Zeuzera pyrina; assay: Inhibition of electroantennogram response of Zeuzera pyrina males to sex pheromone at =>0.05 ug/antenna topical application by electrophysiology; assay type: functional, organism-based

In the case of `CCCCCCCCSCC(=O)C(F)(F)F`, the LD50 at 144 h [1] was 1000 mg/kg.

For `CCCC/C=C\CCCCCCCCCCC(=O)C(F)(F)F`, the EC50 [2] was 0.07 µg/mL (≈ 0.218 µM) and the LD50 at 144 h [1] was 1000 mg/kg.

For `CCCC/C=C\CCCCCCCC/C=C/CCC(=O)C(F)(F)F`, the Activity [3] was 62%, the “inhibition (INH)” value [4] was >80% and the Activity [5] was 95%. The Activity [6] was “Active”, the Activity [7] was 55% and the Activity [8] was 55%.

In the case of `CCCC/C=C\CCCCCCCCC/C=C/CC(=O)C(F)(F)F`, the “inhibition (INH)” value [4] was >80%, the Activity [6] was “Active” and the inhibition [9] was “Active”. The inhibition [10] was “Active”.
